Laboratory results published in patent publication US10278940B2, “Use of 2,5-dihydroxybenzene compounds and derivatives for the treatment of skin cancer” (AmDerma Pharmaceuticals, LLC, priority 2006, dated 2019).

Columns and labels:
rat glioma C6 cells = assay: Rat glioma C6 cell proliferation, crystal violet staining; assay type: cell-based; details: 48 h; for C6 cell proliferation: relative to control; for rat glioma cell proliferation (absorbance at 595 nm, % of control): 500 μM
Procedure: The cell line used was rat glioma C6 cells. The cells were cultured as previously described (Cuevas P et al. Neural Res, 2005). The cells were cultured as adherent cells in Dulbecco's modified Eagle's medium, supplemented with 7.5% (v/v) of fetal bovine serum, 10 μg/ml of streptomycin and 10 units/ml of penicillin. The tumor cells were seeded in 24-well plates at a density of 10,000 cells/well, and were incubated at 37° C. in a humidified chamber with 5% CO2. Once adhered, the cells were treated or not (controls) with 2,5-dihydroxybenzoate at 100, 200, 500 or 1000 µM and they were allowed to proliferate for 48 h. After this time the glioma cell proliferation was evaluated by means of staining the fixed cells with crystal violet. The number of cells is proportional to the amount of retained dye, which was spectrophotometrically determined by measuring the absorbance at 595 nm once the dye was extracted from the cells.
(§1) The cell line used was the C6 cell line and the experiment was carried out as described in Example 2. Once adhered, the cells were treated or not (controls) with increasing concentrations of 2,5-DHC (10, 25, 50 and 100 μM) and they were allowed to proliferate for 48 h. After this time the glioma cell proliferation was evaluated by means of staining the fixed cells with crystal violet. The number of cells is proportional to the amount of retained dye, which was determined spectrophotometrically by measuring absorbance at 595 nm once the dye was extracted from the cells.
as §1, with “examples 2 and 3.” for “Example 2.”, “(5A-2HBS) (500 μM) or (2A-5HBS) (500” for “increasing concentrations of 2,5-DHC (10, 25, 50 and 100”, “measuring the” for “measuring”

bFGF-induced fibrosis = bFGF-induced fibrosis around subcutaneously implanted gelatin sponges; assay type: in vivo, Sprague-Dawley rats; details: 100 μM in sponge with bFGF 10 μg/ml and heparin; subcutaneous; 7 days
Procedure: Sterile gelatin sponges ([…]; Curaspon Dental, Clinimed Holding, Zwanenburg, The Netherlands) were subcutaneously implanted in the dorsal region of the neck in Sprague-Dawley rats after the induction of intraperitoneal anesthesia. The animals were split into two groups: group A, the sponges were moistened with 200 III of saline solution which contained 25 μg/ml of heparin and 10 μg/ml of basic FGF (bFGF); group B, the sponges were moistened in the same solution as in group A, but which solution further contained 2,5-dihydroxybenzoate (100 μM). After 7 days, the sponges and the surrounding subcutaneous fat were removed and histologically analyzed.

[1] = target: T1, Fibroblast Growth Factor-1 (FGF-1) (Homo sapiens, UniProt P05230); assay: Crystal diffraction of FGF-1:compound complexes; details: electron density contoured at 1σ; acetoxyl groups conserved on binding
T1 construct: host or cells: added to Balb/c 3T3 fibroblast cultures
Procedure: Based on the crystal diffraction of the FGF-1:2-acetoxy-5-hydroxybenzene sulfonic acid, FGF-1:5-acetoxy-2-hydroxybenzene sulfonic acid and FGF-1:2,5-diacetoxybenzene sulfonic acid complexes, the structures of the complexes were calculated and represented. FIGS. 13, 14 and 15, which show the surface of the dyed protein according to its electrostatic potential (light grey, negative charge; dark grey, positive charge; white, regions with no charge), show the manner in which 2-acetoxy-5-hydroxybenzene sulfonic acid, 5-acetoxy-2-hydroxybenzene sulfonic acid and 2,5-diacetoxybenzene sulfonic acid interact, respectively, with FGF-1.

[2] = target: T1, Fibroblast Growth Factor-1 (FGF-1); assay: Mitogenesis induced by FGF-1 in quiescent Balb/c 3T3 fibroblast cultures; assay type: cell-based
Procedure: The evaluated compounds were used in the form of potassium salt, except in the first case which used calcium salt. The experiments were carried out as described in Femandez-Tomero C et al. J Bioi Chern, 2003.

[3] = test system: human lung cancer A549 cells; assay: Human tumor cell proliferation, XTT viability method; assay type: cell-based; details: 1-200 μM; 96 h
Procedure: (§2) The cell lines used were the human prostate cancer PC-3 cells and human lung cancer A549 cells. 2000 cells were seeded per well in 96-well plates and they were allowed to adhere overnight. Then the cells were treated or not (controls) with potassium 2,5-diacetoxybenzene sulfonate (DABS) (1-200 μM) and they were allowed to proliferate for 96 h. After this time, the PC-3 and A549 cell proliferation was evaluated by determining the final number of cells by means of the viability method of yellow tetrazolium salt (XTT). The data were expressed as a percentage of the control (without treatment).

[4] = test system: human prostate cancer PC-3 cells; assay: as above; assay type: cell-based; details: 1-200 μM; 96 h
Procedure: as §2

[5] = test system: subcutaneous gliomas (rat C6 glioma cells); assay: Apoptosis in sections of subcutaneous gliomas (hematoxylin and eosin); assay type: in vivo, rats; details: 100 mg/kg/day i.p. for 10 days; vs carrier
Description: Tumor cells elude the programmed cell death process or apoptosis that normal cells experience. Apoptosis induction in tumor cells is one way to confront the development of a tumor. To evaluate the effect of potassium 2,5-[…] sulfonate (DABS) on tumor cell apoptosis, 6).lm thick sections of the subcutaneous gliomas described in example 4 were made. The sections were stained with hematoxylin and eosin and observed at a magnification of 313 times using immersion oil. In these conditions, cell apoptosis is shown by the existence of apoptotic bodies appearing as strongly chromogenic granules in the cell nucleus which is frequently fragmented.

[6] = test system: human prostate cancer PC-3 cells; assay: Subcutaneous PC-3 prostate cancer cell implantation model in athymic mice; assay type: in vivo, athymic mice (Nu/Nu); details: 100 mg/kg daily i.p. for 15 days, vs carrier
Procedure: 5×10^6 human prostate cancer PC-3 cells were subcutaneously injected in male athymic mice (Nu/Nu) of 6-8 weeks of age and weighing 20-26 g. Ten days after the implantation of the tumor cells, the mice were randomly split into two groups: one of them received a daily injection of potassium 2,5-diacetoxybenzene sulfonate (DABS) by intraperitoneal route at a dose of 100 mg/kg dissolved in saline (0.9% NaCl) whereas the other group received a daily injection of carrier (saline). The treatments were administered for 15 days. The volumes of the tumors induced by the implantation of PC-3 cells were measured through the skin on alternating days using a Vernier caliper. The volume was calculated using the formula […], where D is the larger diameter in mm, d is the smaller diameter in mm and V is the volume in mm^3. At the end of treatment, the mice were sacrificed and the tumors were weighed.

[7] = test system: subcutaneous gliomas (rat C6 glioma cells); assay: Progression of established subcutaneous C6 gliomas in rats; assay type: in vivo
Procedure: Rat C6 glioma cells were cultured as previously described (Cuevas P et al. Neural Res, 2005). The C6 cells cultured to confluence in 75 cm^2 flasks were removed and implanted under the abdominal skin in anesthetized rats. The existence of a tumor in the implantation area was observed five days after the implantation of the tumor cells. Only the rats in which the existence of a tumor was observed were randomly assigned to be treated with daily intraperitoneal injections of 2,5-dihydroxybenzene sulfonate (DHBS; 100 mg/kg/day), 2,5-diacetoxybenzene sulfonate (DABS; 100 mg/kg/day) or the carrier (0.9% NaCl). After 10 days of treatment, the subcutaneous gliomas were removed and their volume was calculated according to the formula V=4/3π.(L/2).(A/2)^2 (in mm^3) where L is the larger diameter and A is the smaller diameter, both expressed in mm.

T1 sequence (P05230 whole entry, species assumed): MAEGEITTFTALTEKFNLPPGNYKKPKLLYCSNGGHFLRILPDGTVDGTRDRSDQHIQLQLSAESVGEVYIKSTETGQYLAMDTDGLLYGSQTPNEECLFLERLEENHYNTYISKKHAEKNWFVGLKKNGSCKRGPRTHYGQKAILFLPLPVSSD

For `O=C(O)C=Cc1cc(O)ccc1O` [2,5-DHC, 3-(2,5-dihydroxyphenyl)-2-propenoic acid], the C6 cell proliferation (rat glioma C6 cells; 50 µM) was “reduced the C6 cell proliferation to less than half” and the C6 cell proliferation (rat glioma C6 cells; 100 μM) was “reduced to one tenth”.
With `O=C([O-])c1cc(O)ccc1O.[K+]` [2,5-dihydroxybenzoate, potassium 2,5-dihydroxybenzoate] the “bFGF-induced fibrosis (fibroblasts in septa of connective tissue of adipose tissue)” value (bFGF-induced fibrosis) was “reduces bFGF-induced fibrosis”, the “rat glioma C6 cell proliferation (absorbance at 595 nm)” value (rat glioma C6 cells; 100, 200, 500 or 1000 μM) was “inhibited rat glioma C6 cell proliferation in a concentration-dependent manner” and the “statistical significance of the inhibition of C6 cell proliferation” value (rat glioma C6 cells; at 500 and 1000 μM, vs control) was “statistically significant”.
For `CC(=O)Oc1ccc(O)cc1S(=O)(=O)[O-].[K+]` [2A-5HBS, potassium 2-acetoxy-5-hydroxybenzene sulfonate], the “binding site on FGF-1 in the co-crystal” value [1] was “occupy a site that is very close to the one that has been described occupied by 2,5-dihydroxybenzene sulfonic acid” and the “rat glioma cell proliferation (absorbance at 595 nm, % of control)” value (rat glioma C6 cells) was “caused the inhibition of rat glioma cell proliferation”.
With `CC(=O)Oc1ccc(O)c(S(=O)(=O)[O-])c1.[K+]` [5A-2HBS, potassium 5-acetoxy-2-hydroxybenzene sulfonate] the “binding site on FGF-1 in the co-crystal” value [1] was “occupy a site that is very close to the one that has been described occupied by 2,5-dihydroxybenzene sulfonic acid”, the “rat glioma cell proliferation (absorbance at 595 nm, % of control)” value (rat glioma C6 cells) was “caused the inhibition of rat glioma cell proliferation” and the “mitogenesis induced by FGF-1” value [2] was “inhibition of mitogenesis induced by FGF-1”.
In the case of `CC(=O)Oc1ccc(OC(C)=O)c(S(=O)(=O)[O-])c1.[K+]` [DABS, potassium 2,5-diacetoxybenzene sulfonate], the “binding site on FGF-1 in the co-crystal” value [1] is reported as “occupy a site that is very close to the one that has been described occupied by 2,5-dihydroxybenzene sulfonic acid”, the “A549 cell proliferation (number of viable cells, % of control)” value [3] is reported as “significant inhibition” and the “PC-3 cell proliferation (number of viable cells, % of control)” value [4] is reported as “significant inhibition”. The “tumor cells in apoptosis in glioma sections” value [5] was “a large number of tumor cells in apoptosis can be observed”, the “tumor growth (tumor volume measured through the skin)” value ([6]; started 10 days after implantation) was “significantly reduced the human prostate cell tumor growth” and the “weight of the extracted tumor when treatment ended” value [6] was “significant reduction of the weight of the extracted tumor”. The “mitogenesis induced by FGF-1” value [2] was “inhibition of mitogenesis induced by FGF-1”, the “probability of being tumor-free (χ2 test)” value ([7]; DABS group vs DHBS group, 100 mg/kg/day each) was “greater probability of being tumor-free” and the “rats tumor-free when treatment ended” value ([7]; i.p. 100 mg/kg/day for 10 days, all rats had established tumors before treatment) was 4 rats.
With `O=S(=O)([O-])c1cc(O)ccc1O.[K+]` [DHBS, potassium 2,5-dihydroxybenzene sulfonate, reference compound] the “mitogenesis induced by FGF-1” value [2] was “inhibition of the mitogenesis induced by fibroblast growth factor-1” and the “average size (volume) of the subcutaneous gliomas” value ([7]; i.p. 100 mg/kg/day for 10 days, started on day 5 after implantation, vs carrier) was “less than that of the rats treated with carrier”.
With “calcium 2-acetoxy-5-hydroxybenzene sulfonate” the “mitogenesis induced by FGF-1” value [2] was “inhibition of mitogenesis induced by FGF-1”.
